Test system: drug-resistant Mycobacterium tuberculosis
Conditions: peptide 10 micrograms per ml, seven days

CC[C@H](C)[C@H](NC(=O)[C@H](CCC(=O)O)NC(=O)[C@H](CO)NC(=O)[C@@H](NC(=O)[C@@H](N)CO)C(C)C)C(=O)N[C@@H](CCC(N)=O)C(=O)N[C@@H](CC(C)C)C(=O)N[C@@H](CCSC)C(=O)N[C@@H](Cc1cnc[nH]1)C(=O)N[C@@H](CC(N)=O)C(=O)N[C@@H](CC(C)C)C(=O)NCC(=O)N[C@@H](CCCCN)C(=O)N[C@@H](Cc1cnc[nH]1)C(=O)N[C@@H](CC(C)C)C(=O)N[C@@H](CC(N)=O)C(=O)N[C@@H](CO)C(=O)N[C@@H](CCSC)C(=O)N[C@@H](CCC(=O)O)C(=O)N[C@@H](CCCN=C(N)N)C(=O)N[C@H](C(=O)N[C@@H](CCC(=O)O)C(=O)N[C@@H](Cc1c[nH]c2ccccc12)C(=O)N[C@@H](CC(C)C)C(=O)N[C@@H](CCCN=C(N)N)C(=O)N[C@@H](CCCCN)C(=O)N[C@@H](CCCCN)C(=O)N[C@@H](CC(C)C)C(=O)N[C@@H](CCC(N)=O)C(=O)N[C@@H](CC(=O)O)C(=O)N[C@H](C(=O)N[C@@H](Cc1cnc[nH]1)C(=O)N[C@@H](CC(N)=O)C(=O)N[C@@H](Cc1ccccc1)C(=O)O)C(C)C)C(C)C [pTH (1-34)]
% inhibition: 0.0%
